From patent US7507864B2, “Method for the synthesis of curcumin analogues” (Salisbury University, priority 2006, dated 2009)

Experiment: Solubility in organic solvents
Assay type: physicochemical
Conditions: for solubility in acetone: solvent acetone; for solubility in ethanol: solvent ethanol; for solubility in ethyl acetate: solvent ethyl acetate; for solubility in isobutyl acetate: solvent isobutyl acetate
From the text: Curcumin is a bright red product once purified and maintains the vanilla fragrance due to the presence of methoxy groups from the starting product vanillin. It is soluble in acetone, ethyl acetate, ethanol, and isobutyl acetate. The solubility of bisdemethoxycurcumin, however, is slightly different. It is very soluble in ethanol and isobutyl acetate but acetone and ethyl acetate solubility is limited. Bisdemethoxycurcumin maintains a pumpkin-orange appearance and is more crystalline in nature than curcumin.

COc1cc(/C=C/C(=O)CC(=O)/C=C/c2ccc(O)c(OC)c2)ccc1O [Curcumin, 1,7-bis(4-hydroxy-3-methoxyphenyl)-1,6-heptadiene-3,5-dione]
solubility in acetone: soluble | solubility in ethanol: soluble | solubility in ethyl acetate: soluble | solubility in isobutyl acetate: soluble

O=C(/C=C(O)/C=C/c1ccc(O)cc1)/C=C/c1ccc(O)cc1 [bisdemethoxycurcumin, 1,7-bis-(4-hydroxyphenyl)-1,6-heptadiene-3,5-dione]
solubility in acetone: limited | solubility in ethanol: very soluble | solubility in ethyl acetate: limited | solubility in isobutyl acetate: very soluble
